In US7863248B2, “Tyrosinase activity inhibitor and ameliorant for facial blood flow” (Meiji Seika Kaisha, Ltd., priority 2003, dated 2011):

Tested on: mushroom-derived tyrosinase
Test: Tyrosinase activity inhibition (dopachrome formation from L-dopa, absorbance at 490 nm)
Assay type: biochemical
Details: for Inhibitory Rate (%): 37° C., 30 minutes; for tyrosinase inhibitory activity compared with comparative drugs: comparison in words
Protocol: As test substances, the composition prepared in Example 1 and four types of anthocyanin crystal prepared in Example 2 were used. To a 96-well plate, 40 μl of mushroom-derived tyrosinase (125 unit/ml; dissolved in a 67 mmol/l phosphate buffer solution; […] Sigma), and 40 μl of an inhibitor solution were added. The plate was allowed to stand for 37° C. for 30 minutes. Then, the amount of dopachrome produced was determined by absorbance at 490 nm. Tyrosinase inhibitory activity was expressed as an inhibitory rate obtained by the following equation: Inhibitory Rate (%)=[([…]: absorbance at 490 nm of a control solution • B: absorbance at 490 nm of a control solution (blank solution) • C: absorbance at 490 nm of an anthocyanin solution • D: absorbance at 490 nm of an anthocyanin solution (blank solution).

Inhibitory Rate (%) (inhibitor concentration 0.2 mM)	Inhibitory Rate (%) (inhibitor concentration 10 mM (2.7 mg/ml))	Compound	tyrosinase inhibitory activity compared with comparative drugs
13.2%	–	N[C@@H](CCC(=O)N[C@@H](CS)C(=O)NCC(=O)O)C(=O)O [Glutathione, reference compound]	–
45.0%	–	OC[C@H]1O[C@@H](Oc2cc3c(O)cc(O)cc3[o+]c2-c2ccc(O)c(O)c2)[C@H](O)[C@@H](O)[C@@H]1O [C3G (Example 2), cyanidin-3-glucoside]	tyrosinase inhibitory activity at the same level as that found in comparative drugs such as kojic acid, arbutin
29.8%	–	N[C@@H](CS)C(=O)O [L-Cysteine, reference compound]	–
34.7%	–	O=c1cc(CO)occ1O [Kojic Acid, reference compound]	–
–	10.4%	OC[C@H]1O[C@@H](Oc2ccc(O)cc2)[C@H](O)[C@@H](O)[C@@H]1O [Arbutin, reference compound]	–

Compound	Inhibitory Rate (%) (inhibitor concentration 0.2 mM)	Inhibitory Rate (%) (inhibitor concentration 10 mM (2.7 mg/ml))	tyrosinase inhibitory activity compared with comparative drugs
CC1O[C@@H](OC[C@H]2OC(Oc3cc4c(O)cc(O)cc4[o+]c3-c3cc(O)c(O)c(O)c3)[C@H](O)C(O)C2O)C(O)C(O)[C@H]1O (stereo partly shown) [D3R (Example 2), delphinidin-3-rutinoside]	70.1%	–	tyrosinase inhibitory activity at the same level as that found in comparative drugs such as kojic acid, arbutin
OC[C@H]1O[C@@H](Oc2cc3c(O)cc(O)cc3[o+]c2-c2cc(O)c(O)c(O)c2)[C@H](O)[C@@H](O)[C@@H]1O [D3G (Example 2), delphinidin-3-glucoside]	67.5%	–	tyrosinase inhibitory activity at the same level as that found in comparative drugs such as kojic acid, arbutin
